Reference: patent publication US20260125382A1, “COMPOUNDS FOR INHIBITING OR DEGRADING CDK2 AND/OR CDK9 AND MEDICINAL USE THEREOF” (KOREA RESEARCH INSTITUTE OF CHEMICAL TECHNOLOGY, priority 2022, published 2026)

Key:
CDK9 = target: T1, CDK9 (Homo sapiens, UniProt P50750); experiment: CDK protein degradation activity (Western blotting), CDK9; assay type: cell-based; settings: MDA-MB-231 cells, 16 hours, Western blot
T1 construct: endogenous in cells; host or cells: MDA-MB-231
Method in brief: (§1)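 Protein levels were read by Western blot densitometry, tubulin serving as loading reference. Beforehand, MDA-MB-231 cells had been exposed for 16 hours to 100 nM, 1 μM or 10 μM compound, DMSO as control.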

CDK2 = target: T2, CDK2 (Homo sapiens, UniProt P24941); experiment: CDK protein degradation activity (Western blotting), CDK2; assay type: cell-based; settings: MDA-MB-231 cells, 16 hours, Western blot
T2 construct: endogenous in cells; host or cells: MDA-MB-231
Method in brief: as §1

T1 sequence (P50750 whole entry): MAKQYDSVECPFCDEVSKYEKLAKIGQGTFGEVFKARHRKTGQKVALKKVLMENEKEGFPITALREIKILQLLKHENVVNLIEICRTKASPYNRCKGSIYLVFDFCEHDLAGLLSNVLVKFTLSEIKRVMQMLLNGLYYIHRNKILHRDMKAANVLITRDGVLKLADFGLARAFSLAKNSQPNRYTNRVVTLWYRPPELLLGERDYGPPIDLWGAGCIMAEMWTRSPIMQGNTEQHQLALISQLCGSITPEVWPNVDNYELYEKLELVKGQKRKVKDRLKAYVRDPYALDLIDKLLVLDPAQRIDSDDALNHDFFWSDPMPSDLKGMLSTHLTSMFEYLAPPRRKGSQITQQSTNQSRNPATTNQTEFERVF

SMILES	Enzyme degradation CDK9 (% remaining) @ 0.1 μM (CDK9)	Enzyme degradation CDK9 (% remaining) @ 1 μM (CDK9)	Enzyme degradation CDK9 (% remaining) @ 10 μM (CDK9)	Enzyme degradation CDK2 (% remaining) @ 0.1 μM (CDK2)	Enzyme degradation CDK2 (% remaining) @ 1 μM (CDK2)	Enzyme degradation CDK2 (% remaining) @ 10 μM (CDK2)
Cc1cccc(C(=O)N[C@H]2C[C@@H](n3cnc4c(NC5CCN(CCCCCCNc6ccc7c(c6)C(=O)N([C@H]6CCC(=O)NC6=O)C7=O)CC5)ncnc43)C2)n1 [Compound 17, N-((1s,3s)-3-(6-((1-(6-((2-(2,6-dioxopiperidin-3-yl)-1,3-dioxoisoindolin-5-yl)amino)hexyl)piperidin-4-yl)amino)-9H-purin-9-yl)cyclobutyl)-6-methylpicolinamide]	10%	0%	0%	90%	100%	50%
O=C1CC[C@H](n2nnc3ccc(N4CCN(CCCC5CCN(c6ccc(Nc7ncnc8c7ncn8C7CC(NC(=O)Cc8ccccc8)C7)cc6)CC5)CC4)cc3c2=O)C(=O)N1 (stereo partly drawn) [Compound 349, N-((1s,3s)-3-(6-((4-(4-(3-(4-(3-(2,6-dioxopiperidin-3-yl)-4-oxo-3,4-dihydrobenzo[d][1,2,3]triazin-6-yl)piperazin-1-yl)propyl)piperidin-1-yl)phenyl)amino)-9H-purin-9-yl)cyclobutyl)-2-phenylacetamide]	30%	20%	20%	0/0/0%	0/0/0%	0/0/0%
Cc1cccc(C(=O)N[C@H]2C[C@@H](n3cnc4c(NC5CCN(CCC6CCN(C(=O)CNc7cccc8c7C(=O)N(C7CCC(=O)NC7=O)C8=O)CC6)CC5)ncnc43)C2)n1 (stereo partly drawn) [Compound 34, N-((1s,3s)-3-(6-((1-(2-(1-((2-(2,6-dioxopiperidin-3-yl)-1,3-dioxoisoindolin-4-yl)glycyl)piperidin-4-yl)ethyl)piperidin-4-yl)amino)-9H-purin-9-yl)cyclobutyl)-6-methylpicolinamide]	0%	0%	10%	50%	50%	100%
O=C1CC[C@H](N2C(=O)c3ccc(N4CC(C(=O)N5CCN(C6CN(c7ccc(Nc8ncnc9c8ncn9[C@H]8C[C@@H](NC(=O)Cc9ccccc9)C8)cc7)C6)CC5)C4)cc3C2=O)C(=O)N1 [Compound 373, N-((1s,3s)-3-(6-((4-(3-(4-(1-(2-(2,6-dioxopiperidin-3-yl)-1,3-dioxoisoindolin-5-yl)azetidin-3-carbonyl)piperazin-1-yl)azetidin-1-yl)phenyl)amino)-9H-purin-9-yl)cyclobutyl)-2-phenylacetamide]	40%	20%	20%	30/30/30%	30/30/30%	30/30/30%
O=C1CC[C@H](N2C(=O)c3ccc(NCC(=O)N4CCC(OCCN5CCN(c6ccc(Nc7ncnc8c7ncn8[C@H]7C[C@@H](NC(=O)Cc8ccccc8)C7)cc6)CC5)CC4)cc3C2=O)C(=O)N1 [Compound 248, N-((1s,3s)-3-(6-((4-(4-(2-((1-((2-(2,6-dioxopiperidin-3-yl)-1,3-dioxoisoindolin-5-yl)glycyl)piperidin-4-yl)oxy)ethyl)piperazin-1-yl)phenyl)amino)-9H-purin-9-yl)cyclobutyl)-2-phenylacetamide]	50%	20%	0%	50/50/50%	50/50/50%	50/50/50%
Cc1cccc(C(=O)NC2CC(n3cnc4c(Nc5ccc(N6CCN(C(=O)COc7ccc8c(c7)C(=O)N([C@H]7CCC(=O)NC7=O)C8=O)CC6)cc5)ncnc43)C2)n1 (stereo partly drawn) [Compound 84, N-((1s,3s)-3-(6-((4-(4-(2-((2-(2,6-dioxopiperidin-3-yl)-1,3-dioxoisoindolin-5-yl)oxy)acetyl)piperazin-1-yl)phenyl)amino)-9H-purin-9-yl)cyclobutyl)-6-methylpicolinamide]	70%	30%	10%	50%	30%	20%
O=C1CC[C@H](N2C(=O)c3ccc(N4CCC5(CC4)CC(N4CCN(c6ccc(Nc7ncnc8c7ncn8C7CC(NC(=O)c8c(Cl)cccc8Cl)C7)cc6)CC4)C5)cc3C2=O)C(=O)N1 (stereo partly drawn) [Compound 315, 2,6-dichloro-N-((1s,3s)-3-(6-((4-(4-(7-(2-(2,6-dioxopiperidin-3-yl)-1,3-dioxoisoindolin-5-yl)-7-azaspiro[3.5]nonan-2-yl)piperazin-1-yl)phenyl)amino)-9H-purin-9-yl)cyclobutyl)benzamide]	0/0/0%	0/0/0%	0/0/0%	10%	20%	30%
N#Cc1cccc(C(=O)N[C@H]2C[C@@H](n3cnc4c(Nc5ccc(N6CCN(CC7CCN(c8cc9c(cc8F)C(=O)N(C8CCC(=O)NC8=O)C9=O)CC7)CC6)cc5)ncnc43)C2)n1 (stereo partly drawn) [Compound 414, 6-cyano-N-((1s,3s)-3-(6-((4-(4-((1-(2-(2,6-dioxopiperidin-3-yl)-6-fluoro-1,3-dioxoisoindolin-5-yl)piperidin-4-yl)methyl)piperazin-1-yl)phenyl)amino)-9H-purin-9-yl)cyclobutyl)picolinamide]	10/10/10%	10/10/10%	10/10/10%	20/20/20%	20/20/20%	20/20/20%
O=C1CC[C@H](N2C(=O)c3ccc(N4CCC(CN5CCC(CNc6ncnc7c6ncn7C6CC(NC(=O)Cc7ccccc7)C6)CC5)CC4)cc3C2=O)C(=O)N1 (stereo partly drawn) [Compound 181, N-((1s,3s)-3-(6-(((1-((1-(2-(2,6-dioxopiperidin-3-yl)-1,3-dioxoisoindolin-5-yl)piperidin-4-yl)methyl)piperidin-4-yl)methyl)amino)-9H-purin-9-yl)cyclobutyl)-2-phenylacetamide]	50%	40%	0%	40%	30%	50%
O=C1CC[C@H](N2C(=O)c3cc(F)c(N4CCC(CN5CCN(c6ccc(Nc7ncnc8c7ncn8C7CC(NC(=O)c8cccc(F)n8)C7)cc6)CC5)CC4)cc3C2=O)C(=O)N1 (stereo partly drawn) [Compound 428, N-((1s,3s)-3-(6-((4-(4-((1-(2-(2,6-dioxopiperidin-3-yl)-6-fluoro-1,3-dioxoisoindolin-5-yl)piperidin-4-yl)methyl)piperazin-1-yl)phenyl)amino)-9H-purin-9-yl)cyclobutyl)-6-fluoropicolinamide]	0/0/0%	0/0/0%	0/0/0%	10/10/10%	10/10/10%	10/10/10%
O=C1CCN(c2coc3cc(C(=O)N4CCC(CC(=O)N5CCN(c6ccc(Nc7ncnc8c7ncn8[C@H]7C[C@@H](NC(=O)Cc8ccccc8)C7)cc6)CC5)CC4)ccc23)C(=O)N1 [Compound 195, N-((1s,3s)-3-(6-((4-(4-(2-(1-(3-(2,4-dioxotetrahydropyrimidin-1(2H)-yl)benzofuran-6-carbonyl)piperidin-4-yl)acetyl)piperazin-1-yl)phenyl)amino)-9H-purin-9-yl)cyclobutyl)-2-phenylacetamide]	20%	10%	10%	80%	50%	50%
